Assay results published in patent US11311522B1 (Cavion, Inc., priority 2018, dated 2022).

Molecular target: T1, hERG (Homo sapiens, UniProt Q12809)
T1 construct: expressed in transfected cells; host or cells: CHO-K1
Assay: hERG PatchXpress assay
Assay type: cell-based
Conditions: doses up to 30 μM

T1 sequence (Q12809 whole entry): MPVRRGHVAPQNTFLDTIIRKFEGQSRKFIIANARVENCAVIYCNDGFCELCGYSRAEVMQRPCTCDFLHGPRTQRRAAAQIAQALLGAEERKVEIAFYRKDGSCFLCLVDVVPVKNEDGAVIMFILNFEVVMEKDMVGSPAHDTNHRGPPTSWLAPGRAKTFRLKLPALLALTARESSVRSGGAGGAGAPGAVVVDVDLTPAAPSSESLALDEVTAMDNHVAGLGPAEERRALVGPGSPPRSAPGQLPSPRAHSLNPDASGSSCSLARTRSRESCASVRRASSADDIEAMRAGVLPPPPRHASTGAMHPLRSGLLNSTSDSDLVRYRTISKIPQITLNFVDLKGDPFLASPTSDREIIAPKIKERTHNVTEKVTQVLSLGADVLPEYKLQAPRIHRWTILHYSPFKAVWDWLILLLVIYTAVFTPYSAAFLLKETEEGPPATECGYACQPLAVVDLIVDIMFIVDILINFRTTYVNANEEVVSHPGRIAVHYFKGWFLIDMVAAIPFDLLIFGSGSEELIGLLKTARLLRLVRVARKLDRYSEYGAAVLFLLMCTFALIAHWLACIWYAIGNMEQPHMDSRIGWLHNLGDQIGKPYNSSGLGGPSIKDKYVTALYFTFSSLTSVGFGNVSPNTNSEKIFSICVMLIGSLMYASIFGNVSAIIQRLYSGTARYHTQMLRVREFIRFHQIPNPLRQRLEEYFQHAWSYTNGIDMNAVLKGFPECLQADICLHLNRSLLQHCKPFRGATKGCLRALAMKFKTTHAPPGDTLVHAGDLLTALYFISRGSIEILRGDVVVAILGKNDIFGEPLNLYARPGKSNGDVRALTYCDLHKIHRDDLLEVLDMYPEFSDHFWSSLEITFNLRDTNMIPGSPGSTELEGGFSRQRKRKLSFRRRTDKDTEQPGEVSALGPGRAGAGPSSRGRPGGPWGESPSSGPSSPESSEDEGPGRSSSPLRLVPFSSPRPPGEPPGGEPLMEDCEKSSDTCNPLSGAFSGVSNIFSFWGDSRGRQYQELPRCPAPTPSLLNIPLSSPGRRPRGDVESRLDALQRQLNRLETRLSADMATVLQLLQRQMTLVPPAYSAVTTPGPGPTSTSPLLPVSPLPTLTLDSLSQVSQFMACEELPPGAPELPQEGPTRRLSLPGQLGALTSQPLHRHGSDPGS

Question: With `CC(C)c1ccc(CC(=O)N[C@H](C)c2ccc(OCC(F)(F)F)cn2)cc1` [CX-8998] as the molecule, how does the IC50 read?
Answer: 28 µM

Question: What about the IC20 (human, CHO-K1 cells expressing hERG) of the same molecule?
Answer: 8.7 µM
